Patent US20240025906A1 (NEURON23, INC., priority 2022, published 2024)

Assays:
[1] = system: JAK1/TYK2 pSTAT5 (Tyr694/699) in THP-1 cell line; assay: IFNa-stimulated JAK1/TYK2 pSTAT5 (Tyr694/699) inhibition cellular assay, AlphaLISA; assay type: cell-based; conditions: Homo sapiens; THP-1 cells, IFNa-stimulated, AlphaLISA (Assay B); read-out: Cellular_THP1_IFNa-pSTATS_TYK2
In short: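 pSTAT5 (Tyr694/699) in lysates quantified by AlphaLISA (615 nm) after 30 min IFNa stimulation (100 ng/mL stock) of THP-1 cells. The cells, 2e4 per well in HBSS, had first been exposed 1 h at 37° C. to eight 6-fold compound dilutions, 10000 down to 0.04 nM final. IC50 fitted by 4PL regression, bottom 0, Hill slope −1.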

TYK2 JH2 = target: T1, TYK2 JH2 (Homo sapiens, UniProt P29597); assay: TYK2 JH2 binding assay (KINOMEscan KdELECT competitive binding); conditions: TYK2 JH2 domain, DiscoverX KINOMEscan KdELECT (Assay A); read-out: Biochemical TYK2_DiscoverX_JH2_BND_Kd
T1 construct: purchased DiscoverX (KINOMEscan KdELECT service); host or cells: E. coli BL21-derived (T7 phage display) or HEK-293
T1 sequence (P29597 589-875 limits assumed): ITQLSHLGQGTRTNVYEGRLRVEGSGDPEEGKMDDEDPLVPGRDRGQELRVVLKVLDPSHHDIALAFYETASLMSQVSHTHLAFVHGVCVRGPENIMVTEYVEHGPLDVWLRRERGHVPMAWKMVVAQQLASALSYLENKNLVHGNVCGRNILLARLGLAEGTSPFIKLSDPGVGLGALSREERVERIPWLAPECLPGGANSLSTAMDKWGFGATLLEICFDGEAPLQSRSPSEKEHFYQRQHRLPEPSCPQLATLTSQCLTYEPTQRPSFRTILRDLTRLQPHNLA
In short: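 JH2-domain fragment, expressed as T7 phage tag in BL21-derived E. coli or DNA-tagged from HEK-293, competed with test compound against bead-immobilized biotinylated ligand in binding buffer (0.9% DMSO). 1 h shaking at room temperature; bound kinase eluted with 0.5 μM free ligand and quantified by qPCR. Kd from 11-point 3-fold dilutions.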

Row | IC50 [1] [nM] | Kd (TYK2 JH2) [nM] | Structure (SMILES)
1 | ≤ 500 | ≤ 100 | CNc1ncc(-c2nc3ccc(N4CCO[C@@H](C)C4)c(F)n3n2)c2cc(NC(=O)C3CC3)ncc12 [Example 508, (S)—N-(5-(5-fluoro-6-(2-methylmorpholino)-[1,2,4]triazolo[1,5-a]pyridin-2-yl)-8-(methylamino)-2,7-naphthyridin-3-yl)cyclopropanecarboxamide]
2 | ≤ 500 | ≤ 100 | CNc1ncc(-c2nc3ccc(N4CCO[C@@H](C)C4)c(Cl)n3n2)c2cc(NC(=O)C3CC3)ncc12 [Example 509, (S)—N-(5-(5-chloro-6-(2-methylmorpholino)-[1,2,4]triazolo[1,5-a]pyridin-2-yl)-8-(methylamino)-2,7-naphthyridin-3-yl)cyclopropanecarboxamide]
3 | ≤ 500 | ≤ 100 | CNc1ncc(-c2nc3ccc(OCCS(C)(=O)=O)cn3n2)c2cc(NC(=O)C3CC3)ncc12 [Example 510, N-(8-(methylamino)-5-(6-(2-(methylsulfonyl)ethoxy)-[1,2,4]triazolo[1,5-a]pyridin-2-yl)-2,7-naphthyridin-3-yl)cyclopropanecarboxamide]
4 | ≤ 500 | ≤ 100 | [2H]C([2H])([2H])Nc1ncc(-c2nc3ccc(OC)cn3n2)c2cc(NC(=O)C3CC3)ncc12 [Example 511, N-(5-(6-methoxy-[1,2,4]triazolo[1,5-a]pyridin-2-yl)-8-((methyl-d3)amino)-2,7-naphthyridin-3-yl)cyclopropanecarboxamide]
5 | ≤ 500 | ≤ 100 | [2H]C([2H])([2H])Nc1ncc(-c2nc3ccc(N4CCO[C@H](C)C4)cn3n2)c2cc(NC(=O)C3CC3)ncc12 [Example 512, (R)-N-(8-((methyl-d3)amino)-5-(6-(2-methylmorpholino)-[1,2,4]triazolo[1,5-a]pyridin-2-yl)-2,7-naphthyridin-3-yl)cyclopropanecarboxamide]
6 | ≤ 500 | ≤ 100 | [2H]C([2H])([2H])Nc1ncc(-c2nc3ccc(N4CCC(F)(F)CC4)cn3n2)c2cc(NC(=O)C3CC3)ncc12 [Example 513, N-(5-(6-(4,4-difluoropiperidin-1-yl)-[1,2,4]triazolo[1,5-a]pyridin-2-yl)-8-((methyl-d3)amino)-2,7-naphthyridin-3-yl)cyclopropanecarboxamide]
7 | ≤ 500 | ≤ 100 | CCNc1ncc(-c2nc3ccc(N4CCOCC4)cn3n2)c2cc(NC(=O)C3CC3)ncc12 [Example 514, N-(8-(ethylamino)-5-(6-morpholino-[1,2,4]triazolo[1,5-a]pyridin-2-yl)-2,7-naphthyridin-3-yl)cyclopropanecarboxamide]
8 | ≤ 500 | ≤ 100 | CCNc1ncc(-c2nc3ccc(N4CCO[C@@H](C)C4)cn3n2)c2cc(NC(=O)C3CC3)ncc12 [Example 515, (S)-N-(8-(ethylamino)-5-(6-(2-methylmorpholino)-[1,2,4]triazolo[1,5-a]pyridin-2-yl)-2,7-naphthyridin-3-yl)cyclopropanecarboxamide]
9 | ≤ 500 | ≤ 100 | CCNc1ncc(-c2nc3ccc(OC)cn3n2)c2cc(NC(=O)C3CC3)ncc12 [Example 516, N-(8-(ethylamino)-5-(6-methoxy-[1,2,4]triazolo[1,5-a]pyridin-2-yl)-2,7-naphthyridin-3-yl)cyclopropanecarboxamide]
10 | ≤ 500 | ≤ 100 | CCNc1ncc(-c2nc3ccc(C)cn3n2)c2cc(NC(=O)C3CC3)ncc12 [Example 517, N-(8-(ethylamino)-5-(6-methyl-[1,2,4]triazolo[1,5-a]pyridin-2-yl)-2,7-naphthyridin-3-yl)cyclopropanecarboxamide]
11 | ≤ 500 | ≤ 100 | O=C(Nc1cc2c(-c3nc4ccc(N5CCOCC5)cn4n3)cnc(NC3CC3)c2cn1)C1CC1 [Example 518, N-(8-(cyclopropylamino)-5-(6-morpholino-[1,2,4]triazolo[1,5-a]pyridin-2-yl)-2,7-naphthyridin-3-yl)cyclopropanecarboxamide]
12 | > 500 | ≤ 100 | O=C(Nc1cc2c(-c3nc4ccccn4n3)cnc(NC3CC3)c2cn1)C1CC1 [Example 519, N-(5-([1,2,4]triazolo[1,5-a]pyridin-2-yl)-8-(cyclopropylamino)-2,7-naphthyridin-3-yl)cyclopropanecarboxamide]
13 | ≤ 500 | ≤ 100 | CNc1ncc(-c2nc3ccc(OC)cn3n2)c2cc(NC(=O)[C@H]3C[C@H]3C)ncc12 [Example 520, (1S,2R)—N-(5-(6-methoxy-[1,2,4]triazolo[1,5-a]pyridin-2-yl)-8-(methylamino)-2,7-naphthyridin-3-yl)-2-methylcyclopropane-1-carboxamide]
14 | ≤ 500 | ≤ 100 | CNc1ncc(-c2nc3ccc(OC)cn3n2)c2cc(Nc3ccccn3)ncc12 [Example 523, 4-(6-methoxy-[1,2,4]triazolo[1,5-a]pyridin-2-yl)-N^1-methyl-N^6-(pyridin-2-yl)-2,7-naphthyridine-1,6-diamine]
15 | ≤ 500 | ≤ 100 | CNc1ncc(-c2nc3ccc(OC)cn3n2)c2cc(Nc3cccc(OC)n3)ncc12 [Example 524, 4-(6-methoxy-[1,2,4]triazolo[1,5-a]pyridin-2-yl)-N^6-(6-methoxypyridin-2-yl)-N^1-methyl-2,7-naphthyridine-1,6-diamine]
16 | ≤ 500 | ≤ 100 | CNc1ncc(-c2nc3ccc(N4CCOCC4)cn3n2)c2cc(NC(=O)[C@H]3C[C@H]3C)ncc12 [Example 525, (1S,2R)-2-methyl-N-(8-(methylamino)-5-(6-morpholino-[1,2,4]triazolo[1,5-a]pyridin-2-yl)-2,7-naphthyridin-3-yl)cyclopropane-1-carboxamide]
17 | ≤ 500 | ≤ 100 | CNc1ncc(-c2nc3ccc(N4CCOCC4)cn3n2)c2cc(NC(=O)C3(C)CC3)ncc12 [Example 526, 1-methyl-N-(8-(methylamino)-5-(6-morpholino-[1,2,4]triazolo[1,5-a]pyridin-2-yl)-2,7-naphthyridin-3-yl)cycloproapne-1-carboxamide]
18 | ≤ 500 | ≤ 100 | CNc1ncc(-c2nc3ccc(N4CCOCC4)cn3n2)c2cc(NC(=O)C3(F)CC3)ncc12 [Example 527, 1-fluoro-N-(8-(methylamino)-5-(6-morpholino-[1,2,4]triazolo[1,5-a]pyridin-2-yl)-2,7-naphthyridin-3-yl)cyclopropane-1-carboxamide]
19 | ≤ 500 | ≤ 100 | CNc1ncc(-c2nc3ccc(N4CCOCC4)cn3n2)c2cc(NC(=O)C3CCC3)ncc12 [Example 528, N-(8-(methylamino)-5-(6-morpholino-[1,2,4]triazolo[1,5-a]pyridin-2-yl)-2,7-naphthyridin-3-yl)cyclobutanecarboxamide]
20 | ≤ 500 | ≤ 100 | CNc1ncc(-c2nc3ccc(N4CCOCC4)cn3n2)c2cc(NC(=O)C3(OC)CC3)ncc12 [Example 529, 1-methoxy-N-(8-(methylamino)-5-(6-morpholino-[1,2,4]triazolo[1,5-a]pyridin-2-yl)-2,7-naphthyridin-3-yl)cyclopropane-1-carboxamide]
21 | ≤ 500 | ≤ 100 | CNc1ncc(-c2nc3ccc(N4CCOCC4)cn3n2)c2cc(NC(=O)[C@@H]3C[C@@H]3C)ncc12 [Example 530, (1R,2S)-2-methyl-N-(8-(methylamino)-5-(6-morpholino-[1,2,4]triazolo[1,5-a]pyridin-2-yl)-2,7-naphthyridin-3-yl)cycloproapne-1-carboxamide]
22 | ≤ 500 | ≤ 100 | CNc1ncc(-c2nc3ccc(N4CCOCC4)cn3n2)c2cc(NC(=O)C3CC34CC4)ncc12 (stereo not shown) [Example 531, N-(8-(methylamino)-5-(6-morpholino-[1,2,4]triazolo[1,5-a]pyridin-2-yl)-2,7-naphthyridin-3-yl)spiro[2.2]pentane-1-carboxamide]
23 | ≤ 500 | ≤ 100 | CNc1ncc(-c2nc3ccc(N4CCOCC4)cn3n2)c2cc(Nc3ccccn3)ncc12 [Example 536, N^1-methyl-4-(6-morpholino-[1,2,4]triazolo[1,5-a]pyridin-2-yl)-N^6-(pyridin-2-yl)-2,7-naphthyridine-1,6-diamine]
24 | ≤ 500 | ≤ 100 | CNc1ncc(-c2nc3ccc(N4CCOCC4)cn3n2)c2cc(Nc3ncccc3F)ncc12 [Example 537, N^6-(3-fluoropyridin-2-yl)-N^1-methyl-4-(6-morpholino-[1,2,4]triazolo[1,5-a]pyridin-2-yl)-2,7-naphthyridine-1,6-diamine]
25 | ≤ 500 | ≤ 100 | CNc1ncc(-c2nc3ccc(N4CCOCC4)cn3n2)c2cc(Nc3ccc(C(C)(C)O)cn3)ncc12 [Example 538, 2-(6-((8-(methylamino)-5-(6-morpholino-[1,2,4]triazolo[1,5-a]pyridin-2-yl)-2,7-naphthyridin-3-yl)amino)pyridin-3-yl)propan-2-ol]
26 | ≤ 500 | ≤ 100 | CNc1ncc(-c2nc3ccc(N4CCO[C@@H](C)C4)cn3n2)c2cc(NC(=O)[C@H]3C[C@H]3C)ncc12 [Example 539, (1S,2R)-2-methyl-N-(8-(methylamino)-5-(6-((S)-2-methylmorpholino)-[1,2,4]triazolo[1,5-a]pyridin-2-yl)-2,7-naphthyridin-3-yl)cyclopropane-1-carboxamide]
